What was measured:
Pseudomonas aeruginosa [1] = test: Ratio of mutant prevention concentration to minimum Inhibitory concentration for Pseudomonas aeruginosa P356; assay type: functional
Pseudomonas aeruginosa [2] = test: Ratio of mutant prevention concentration to minimum Inhibitory concentration for Pseudomonas aeruginosa P369; assay type: functional
Pseudomonas aeruginosa [3] = test: Ratio of mutant prevention concentration to minimum Inhibitory concentration for Pseudomonas aeruginosa P335; assay type: functional
Pseudomonas aeruginosa [4] = test: Ratio of mutant prevention concentration to minimum Inhibitory concentration for Pseudomonas aeruginosa P328; assay type: functional
Pseudomonas aeruginosa [5] = test: Ratio of mutant prevention concentration to minimum Inhibitory concentration for Pseudomonas aeruginosa P363; assay type: functional
Pseudomonas aeruginosa [6] = test: Ratio of mutant prevention concentration to minimum Inhibitory concentration for Pseudomonas aeruginosa P370; assay type: functional
Pseudomonas aeruginosa [7] = test: Ratio of mutant prevention concentration to minimum Inhibitory concentration for Pseudomonas aeruginosa P341; assay type: functional
Pseudomonas aeruginosa [8] = test: Ratio of mutant prevention concentration to minimum Inhibitory concentration for Pseudomonas aeruginosa P358; assay type: functional
Pseudomonas aeruginosa [9] = test: Ratio of mutant prevention concentration to minimum Inhibitory concentration for Pseudomonas aeruginosa P326; assay type: functional
Acinetobacter baumannii [10] = test: Ratio of mutant prevention concentration to minimum Inhibitory concentration for Acinetobacter baumannii A848; assay type: functional
Acinetobacter baumannii [11] = test: Ratio of mutant prevention concentration to minimum Inhibitory concentration for Acinetobacter baumannii A867; assay type: functional
Acinetobacter baumannii [12] = test: Ratio of mutant prevention concentration to minimum Inhibitory concentration for Acinetobacter baumannii A892; assay type: functional
Acinetobacter baumannii [13] = test: Ratio of mutant prevention concentration to minimum Inhibitory concentration for Acinetobacter baumannii A884; assay type: functional
Acinetobacter baumannii [14] = test: Ratio of mutant prevention concentration to minimum Inhibitory concentration for Acinetobacter baumannii A908; assay type: functional
Acinetobacter baumannii [15] = test: Ratio of mutant prevention concentration to minimum Inhibitory concentration for Acinetobacter baumannii A885; assay type: functional
Acinetobacter baumannii [16] = test: Antibacterial activity against Acinetobacter baumannii A908 after 24 hrs by agar dilution method; assay type: functional; details: A908, 24 h
Acinetobacter baumannii [17] = test: Antibacterial activity against Acinetobacter baumannii A890 after 24 hrs by agar dilution method; assay type: functional; details: A890, 24 h
Acinetobacter baumannii [18] = test: Antibacterial activity against Acinetobacter baumannii A891 after 24 hrs by agar dilution method; assay type: functional; details: A891, 24 h
Acinetobacter baumannii [19] = test: Antibacterial activity against Acinetobacter baumannii A894 after 24 hrs by agar dilution method; assay type: functional; details: A894, 24 h
Acinetobacter baumannii [20] = test: Antibacterial activity against Acinetobacter baumannii A903 after 24 hrs by agar dilution method; assay type: functional; details: A903, 24 h
Escherichia coli [21] = test: Antibacterial activity against beta-lactamase-negative Escherichia coli E347 after 24 hrs by agar dilution method; details: E347, 24 h
Escherichia coli [22] = test: Antibacterial activity against beta-lactamase-negative Escherichia coli E348 after 24 hrs by agar dilution method; details: E348, 24 h
Escherichia coli [23] = test: Antibacterial activity against beta-lactamase-negative Escherichia coli E350 after 24 hrs by agar dilution method; details: E350, 24 h
Escherichia coli [24] = test: Antibacterial activity against beta-lactamase-negative Escherichia coli E409 after 24 hrs by agar dilution method; details: E409, 24 h
Escherichia coli [25] = test: Antibacterial activity against beta-lactamase-positive ESBL-negative Escherichia coli E437 after 24 hrs by agar dilution method; details: E437, 24 h
Escherichia coli [26] = test: Antibacterial activity against beta-lactamase-negative Escherichia coli E425 after 24 hrs by agar dilution method; details: E425, 24 h
Escherichia coli [27] = test: Antibacterial activity against beta-lactamase-positive ESBL-positive Escherichia coli E446 after 24 hrs by agar dilution method; details: E446, 24 h
Escherichia coli [28] = test: Antibacterial activity against beta-lactamase-positive ESBL-positive Escherichia coli E451 after 24 hrs by agar dilution method; details: E451, 24 h
Escherichia coli [29] = test: Antibacterial activity against beta-lactamase-positive ESBL-negative Escherichia coli E484 after 24 hrs by agar dilution method; assay type: functional; details: E484, 24 h
Klebsiella pneumoniae [30] = test: Antibacterial activity against beta-lactamase-negative Klebsiella pneumoniae E359 after 24 hrs by agar dilution method; assay type: functional; details: E359, 24 h
Klebsiella pneumoniae [31] = test: Antibacterial activity against beta-lactamase-negative Klebsiella pneumoniae E361 after 24 hrs by agar dilution method; assay type: functional; details: E361, 24 h
Klebsiella pneumoniae [32] = test: Antibacterial activity against beta-lactamase-negative Klebsiella pneumoniae E362 after 24 hrs by agar dilution method; assay type: functional; details: E362, 24 h
Klebsiella pneumoniae [33] = test: Antibacterial activity against beta-lactamase-negative Klebsiella pneumoniae E418 after 24 hrs by agar dilution method; assay type: functional; details: E418, 24 h
Klebsiella pneumoniae [34] = test: Antibacterial activity against beta-lactamase-positive ESBL-positive Klebsiella pneumoniae E476 after 24 hrs by agar dilution method; assay type: functional; details: E476, 24 h
Klebsiella pneumoniae [35] = test: Antibacterial activity against beta-lactamase-positive ESBL-negative Klebsiella pneumoniae E474 after 24 hrs by agar dilution method; assay type: functional; details: E474, 24 h
Klebsiella pneumoniae [36] = test: Antibacterial activity against beta-lactamase-positive ESBL-positive Klebsiella pneumoniae E475 after 24 hrs by agar dilution method; assay type: functional; details: E475, 24 h
Klebsiella pneumoniae [37] = test: Antibacterial activity against beta-lactamase-negative Klebsiella pneumoniae E420 after 24 hrs by agar dilution method; assay type: functional; details: E420, 24 h
Klebsiella pneumoniae [38] = test: Antibacterial activity against beta-lactamase-positive ESBL-negative Klebsiella pneumoniae E511 after 24 hrs by agar dilution method; assay type: functional; details: E511, 24 h
Pseudomonas aeruginosa [39] = test: Antibacterial activity against Pseudomonas aeruginosa P369 after 24 hrs by agar dilution method; details: P369, 24 h
Pseudomonas aeruginosa [40] = test: Antibacterial activity against Pseudomonas aeruginosa P322 after 24 hrs by agar dilution method; details: P322, 24 h
Pseudomonas aeruginosa [41] = test: Antibacterial activity against Pseudomonas aeruginosa P327 after 24 hrs by agar dilution method; details: P327, 24 h
Pseudomonas aeruginosa [42] = test: Antibacterial activity against Pseudomonas aeruginosa P334 after 24 hrs by agar dilution method; details: P334, 24 h
Pseudomonas aeruginosa [43] = test: Antibacterial activity against Pseudomonas aeruginosa P337 after 24 hrs by agar dilution method; details: P337, 24 h
Pseudomonas aeruginosa [44] = test: Antibacterial activity against Pseudomonas aeruginosa P353 after 24 hrs by agar dilution method; assay type: functional; details: P353, 24 h
Pseudomonas aeruginosa [45] = test: Antibacterial activity against Pseudomonas aeruginosa P365 after 24 hrs by agar dilution method; details: P365, 24 h
Pseudomonas aeruginosa [46] = test: Antibacterial activity against Pseudomonas aeruginosa P340 after 24 hrs by agar dilution method; details: P340, 24 h
Pseudomonas aeruginosa [47] = test: Antibacterial activity against Pseudomonas aeruginosa P341 after 24 hrs by agar dilution method; details: P341, 24 h
Pseudomonas aeruginosa [48] = test: Antibacterial activity against Pseudomonas aeruginosa P358 after 24 hrs by agar dilution method; assay type: functional; details: P358, 24 h
Pseudomonas aeruginosa [49] = test: Antibacterial activity against Pseudomonas aeruginosa P326 after 24 hrs by agar dilution method; details: P326, 24 h
Acinetobacter baumannii [50] = test: Antibacterial activity against Acinetobacter baumannii A848 after 24 hrs by agar dilution method; assay type: functional; details: A848, 24 h
Acinetobacter baumannii [51] = test: Antibacterial activity against Acinetobacter baumannii A851 after 24 hrs by agar dilution method; assay type: functional; details: A851, 24 h
Acinetobacter baumannii [52] = test: Antibacterial activity against Acinetobacter baumannii A867 after 24 hrs by agar dilution method; assay type: functional; details: A867, 24 h
Acinetobacter baumannii [53] = test: Antibacterial activity against Acinetobacter baumannii A912 after 24 hrs by agar dilution method; assay type: functional; details: A912, 24 h
Acinetobacter baumannii [54] = test: Antibacterial activity against Acinetobacter baumannii A896 after 24 hrs by agar dilution method; assay type: functional; details: A896, 24 h

C[C@@H](O)[C@H]1C(=O)N2C(C(=O)O)=C(S[C@@H]3CN[C@H](CNS(N)(=O)=O)C3)[C@H](C)[C@H]12 [DORIPENEM]
2: Ratio (Pseudomonas aeruginosa [4]) | Ratio (Acinetobacter baumannii [10]) | Ratio (Acinetobacter baumannii [13]) | Ratio (Acinetobacter baumannii [14]) | Ratio (Acinetobacter baumannii [15])
16: Ratio (Pseudomonas aeruginosa [5]) | Ratio (Pseudomonas aeruginosa [6]) | Ratio (Pseudomonas aeruginosa [7]) | Ratio (Acinetobacter baumannii [11]) | Ratio (Acinetobacter baumannii [12])
8: Ratio (Pseudomonas aeruginosa [2]) | Ratio (Pseudomonas aeruginosa [3]) | Ratio (Pseudomonas aeruginosa [8])
>16: Ratio (Pseudomonas aeruginosa [1])
4: Ratio (Pseudomonas aeruginosa [9])

C[C@@H](O)[C@H]1C(=O)N2C(C(=O)O)=C(SCCNC=N)C[C@H]12 [IMIPENEM ANHYDROUS]
0.5 µg/mL: MIC (Acinetobacter baumannii [17]) | MIC (Acinetobacter baumannii [18]) | MIC (Acinetobacter baumannii [19]) | MIC (Acinetobacter baumannii [20]) | MIC (Escherichia coli [23]) | MIC (Klebsiella pneumoniae [30]) | MIC (Klebsiella pneumoniae [31]) | MIC (Klebsiella pneumoniae [32]) | MIC (Pseudomonas aeruginosa [46])
0.25 µg/mL: MIC (Acinetobacter baumannii [16]) | MIC (Escherichia coli [21]) | MIC (Escherichia coli [24]) | MIC (Escherichia coli [25]) | MIC (Escherichia coli [26]) | MIC (Escherichia coli [27]) | MIC (Escherichia coli [28]) | MIC (Klebsiella pneumoniae [37]) | MIC (Acinetobacter baumannii [54])
2 µg/mL: MIC (Klebsiella pneumoniae [33]) | MIC (Klebsiella pneumoniae [38]) | MIC (Pseudomonas aeruginosa [39]) | MIC (Pseudomonas aeruginosa [41]) | MIC (Pseudomonas aeruginosa [43]) | MIC (Pseudomonas aeruginosa [45]) | MIC (Acinetobacter baumannii [51]) | MIC (Acinetobacter baumannii [53])
1 µg/mL: MIC (Pseudomonas aeruginosa [42])
32 µg/mL: MIC (Pseudomonas aeruginosa [48])
4 µg/mL: MIC (Escherichia coli [29]) | MIC (Klebsiella pneumoniae [36]) | MIC (Pseudomonas aeruginosa [40]) | MIC (Pseudomonas aeruginosa [47]) | MIC (Acinetobacter baumannii [50]) | MIC (Acinetobacter baumannii [52])
8 µg/mL: MIC (Klebsiella pneumoniae [34]) | MIC (Klebsiella pneumoniae [35]) | MIC (Pseudomonas aeruginosa [44])
0.125 µg/mL: MIC (Escherichia coli [22])
16 µg/mL: MIC (Pseudomonas aeruginosa [49])

Source: ChEMBL document CHEMBL1255475, “Mutant prevention concentrations of four carbapenems against gram-negative rods” (2010)
